Measurements as given in PubChem BioAssay (NCI).
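These data come from cells grown in 96-well plates and exposed to compound for 48 hours at five concentrations. GI50 marks 50% less growth. TGI is the concentration that stops growth completely.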

Tests used:
Assay in all cases: NCI tumour cell line growth inhibition, 48 h
[1] = test system: KM12 colon
[2] = test system: MOLT-4 leukemia
[3] = test system: NCI/ADR-RES ovarian
[4] = test system: SF-295 CNS
[5] = test system: COLO 205 colon
[6] = test system: MDA-MB-435
[7] = test system: SK-MEL-5 melanoma
[8] = test system: IGROV1 ovarian
[9] = test system: OVCAR-4 ovarian
[10] = test system: MCF7 breast
[11] = test system: NCI-H522 lung
[12] = test system: MDA-MB-468 breast
[13] = test system: SK-MEL-2 melanoma
[14] = test system: RPMI-8226 leukemia
[15] = test system: HCT-116 colon
[16] = test system: OVCAR-3 ovarian
[17] = test system: UACC-62 melanoma
[18] = test system: HCC-2998 colon
[19] = test system: DU-145 prostate
[20] = test system: CAKI-1 renal
[21] = test system: HOP-62 NSCLC
[22] = test system: MDA-MB-231 breast
[23] = test system: HOP-92 NSCLC
[24] = test system: MALME-3M melanoma
[25] = test system: K-562 leukemia
[26] = test system: UACC-257 melanoma
[27] = test system: HT29 colon
[28] = test system: SF-268 CNS
[29] = test system: EKVX NSCLC
[30] = test system: U251 CNS
[31] = test system: SK-OV-3 ovarian
[32] = test system: UO-31 renal
[33] = test system: TK-10 renal
[34] = test system: HCT-15 colon
[35] = test system: CCRF-CEM leukemia
[36] = test system: HL-60(TB) leukemia
[37] = test system: SR leukemia
[38] = test system: 786-0 renal
[39] = test system: M14 melanoma
[40] = test system: HS 578T breast
[41] = test system: A549 NSCLC
[42] = test system: NCI-H226 lung
[43] = test system: NCI-H460 lung
[44] = test system: OVCAR-8 ovarian
[45] = test system: LOX IMVI melanoma
[46] = test system: RXF 393 renal
[47] = test system: ACHN renal
[48] = test system: SN12C renal
[49] = test system: OVCAR-5 ovarian
[50] = test system: BT-549 breast
[51] = test system: SK-MEL-28 melanoma
[52] = test system: A498 renal
[53] = test system: SF-539 CNS
[54] = test system: SW-620 colon
[55] = test system: SNB-19 CNS
[56] = test system: NCI-H23 lung
[57] = test system: SNB-75 CNS
[58] = test system: T-47D breast
[59] = test system: PC-3 prostate

NS(=O)(=O)c1ccc(N2N=C(c3ccc(NC(=O)Nc4ccccc4)cc3)CC2c2ccc(Br)cc2)cc1 (configuration not stated)
GI50 [1]: 2620 nM | TGI [1]: 6.92 µM | GI50 [2]: 2660 nM | TGI [2]: 11.4 µM | GI50 [3]: 1910 nM | TGI [3]: 4 µM | GI50 [4]: 3.18 µM | TGI [4]: 12.7 µM | GI50 [5]: 1790 nM | TGI [5]: 3.39 µM | GI50 [6]: 2020 nM | TGI [6]: 7.47 µM | GI50 [7]: 1770 nM | TGI [7]: 3.39 µM | GI50 [8]: 2860 nM | TGI [8]: 10.6 µM | GI50 [9]: 2550 nM | TGI [9]: 10.5 µM | GI50 [10]: 2600 nM | TGI [10]: 10.2 µM | GI50 [11]: 2670 nM | TGI [11]: 8.23 µM | GI50 [12]: 2010 nM | TGI [12]: 5.38 µM | GI50 [13]: 5.38 µM | TGI [13]: 19.9 µM | GI50 [14]: 2110 nM | TGI [14]: 5.26 µM | GI50 [15]: 1750 nM | TGI [15]: 3.56 µM | GI50 [16]: 1860 nM | TGI [16]: 4.34 µM | GI50 [17]: 1640 nM | TGI [17]: 3.23 µM | GI50 [18]: 1600 nM | TGI [18]: 3.06 µM | GI50 [19]: 2870 nM | TGI [19]: 8.67 µM | GI50 [20]: 2640 nM | TGI [20]: 8.44 µM | GI50 [21]: 2010 nM | TGI [21]: 4.78 µM | GI50 [22]: 1930 nM | TGI [22]: 4.03 µM | GI50 [23]: 1980 nM | TGI [23]: 5.24 µM | GI50 [24]: 2150 nM | TGI [24]: 5.76 µM | GI50 [25]: 3.16 µM | TGI [25]: > 100 µM | GI50 [26]: 5.32 µM | TGI [26]: 20.4 µM | GI50 [27]: 1920 nM | TGI [27]: 4.53 µM | GI50 [28]: 2630 nM | TGI [28]: 11.2 µM | GI50 [29]: 3.19 µM | TGI [29]: 13.6 µM | GI50 [30]: 2720 nM | TGI [30]: 8.65 µM | GI50 [31]: 3.48 µM | TGI [31]: 14.2 µM | GI50 [32]: 2570 nM | TGI [32]: 10.7 µM | GI50 [33]: 3.13 µM | TGI [33]: 12.4 µM | GI50 [34]: 2580 nM | TGI [34]: 10.1 µM | GI50 [35]: 2340 nM | TGI [35]: 5.95 µM | GI50 [36]: 2120 nM | TGI [36]: 5.59 µM | GI50 [37]: 2710 nM | TGI [37]: 9.08 µM | GI50 [38]: 2950 nM | TGI [38]: 10.1 µM | GI50 [39]: 2110 nM | TGI [39]: 4.5 µM | GI50 [40]: 2520 nM | TGI [40]: 7.86 µM | GI50 [41]: 3.08 µM | TGI [41]: 11.3 µM | GI50 [42]: 2340 nM | TGI [42]: 6.76 µM | GI50 [43]: 1920 nM | TGI [43]: 4.25 µM | GI50 [44]: 3.55 µM | TGI [44]: 16.1 µM | GI50 [45]: 1730 nM | TGI [45]: 3.12 µM | GI50 [46]: 1820 nM | TGI [46]: 4.96 µM | GI50 [47]: 2880 nM | TGI [47]: 8.93 µM | GI50 [48]: 1680 nM | TGI [48]: 3.15 µM | GI50 [49]: 2140 nM | TGI [49]: 5.4 µM | GI50 [50]: 2030 nM | TGI [50]: 4.22 µM | GI50 [51]: 2660 nM | TGI [51]: 7.26 µM | GI50 [52]: 1980 nM | TGI [52]: 4.99 µM | GI50 [53]: 2060 nM | TGI [53]: 4.63 µM | GI50 [54]: 2500 nM | GI50 [55]: 4.11 µM | TGI [55]: 15.7 µM | GI50 [56]: 1850 nM | TGI [56]: 3.73 µM | GI50 [57]: 1760 nM | TGI [57]: 11.7 µM | GI50 [58]: 2870 nM | TGI [58]: 11.6 µM | GI50 [59]: 2730 nM | TGI [59]: 9.76 µM
